Data on 4 compounds can be found in patent US9044013B2, “Glyoxime derivative and pest control agent” (KUMIAI CHEMICAL INDUSTRY CO., LTD., priority 2011, dated 2015).

This assay concerns Nilaparvata lugens Stál (brown rice planthopper). The experiment in a line: Insecticidal action test for Nilaparvata lugens Stál (brown rice planthopper) (immersion test). The settings on record: 144 h, 500 ppm active ingredient (wettable powder diluted with water), sprouting unhulled rice immersed, 10 2-age larvae, 25° C., after 6 days, no repetition, read-out: insect mortality. It counts as in vivo. How it is done: Insecticidal action test for Nilaparvata lugens Stál (Brown Rice Planthopper) (Immersion Test)
A wettable powder prepared based on Formulation Example 2 was diluted with water so that the concentration of active ingredient became 500 ppm. In the diluted liquid was immersed sprouting unhulled rice. The immersed rice was placed in a plastic cup of 60 ml. Into the plastic cup were released 10 2-age larvae of Nilaparvata lugens Stál (brown rice planthopper). The cup was covered with a cap and placed in a thermostat of 25° C. After 6 days, the number of living insects was counted and the mortality of insect was calculated using the calculation formula of Mathematical Expression 1. This test was conducted with no repetition. Insect mortality(%)=[1−(number of living insects)/(number of tested insects)]×100 [Mathematical Expression 1]
The compound Nos. of the compounds which gave an insect mortality of 90% or higher in the above test, are shown below.
For `CC(C)ON=C(C#N)C(N)=NO` [1-004, 3-amino-3-hydroxyimino-2-isopropoxyiminopropionitrile], the mortality at 500 ppm is at least 90%. The figure for `CCCON=C(N)C(C#N)=NOCCC` [1-072, 3-Amino-2,3-Bis(Propoxyimino)Propionitrile] is at least 90%; for `CCCON=C(N)C(C#N)=NOC(C)C` [1-073, 3-amino-2-isopropoxyimino-3-propoxyiminopropionitrile] it is at least 90%; for `CC(C)ON=C(N)C(C#N)=NOC(C)C` [1-096, 3-amino-2,3-bis(isopropoxyimino)propionitrile] it is at least 90%.
